Test results taken from PubChem BioAssay AID463101 (The Scripps Research Institute Molecular Screening Center, 2010).
Activity calls are given as the source filed them.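 Rule for the calls: active = at 63 nM, GSTO1 inhibition of at least 80% or band labeling of at least 80% relative to 1 µM; inactive = the rest.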

Target: Glutathione S-transferase omega-1 (Homo sapiens) (UniProt P78417)
Test: alkyne analogs labeling GSTO1 in proteome, late-stage follow-up, mechanism study for GSTO1 inhibitor project, cell lysate, MDA-MB-435 proteome, click chemistry, set 2 (AID 463101)
Conditions: MDA-MB-435 soluble proteome, gel ABPP fluorescence; for outcome / labeling: direct click chemistry labeling assay; for labeling: click chemistry direct labeling series, at 0.25 µM, stronger effect = higher value; for inhibition: in situ competitive ABPP, probe SE-Rh, at 1 µM (top of the series)

Chain of Glutathione S-transferase omega-1 (Homo sapiens) (P78417 whole entry, looked up): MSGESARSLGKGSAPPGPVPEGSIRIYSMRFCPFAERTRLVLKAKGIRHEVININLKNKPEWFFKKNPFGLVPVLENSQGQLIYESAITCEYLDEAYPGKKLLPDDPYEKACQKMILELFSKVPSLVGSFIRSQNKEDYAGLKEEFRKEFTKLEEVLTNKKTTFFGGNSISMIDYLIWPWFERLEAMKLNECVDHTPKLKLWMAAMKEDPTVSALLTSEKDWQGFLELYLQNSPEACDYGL

Row | outcome | labeling [%] | inhibition | SMILES
1 | active | 94 | 100% | C#CCN(CCCN(C(=O)CCl)c1ccc([N+](=O)[O-])cc1)C(=O)C(F)(F)F
2 | inactive | 77 | 100% (inactive) | C#CCCC(=O)NCCCN(C(=O)CCl)c1ccc([N+](=O)[O-])cc1
